Data taken from patent publication US20220323548A1 (priority 2019, published 2022).
Positions of bridges follow the written chain, without caps; N, C: chain ends. Chains are numbered I, II in the order given. No end group written: not given here. *: point of attachment. X1 = CC(=O)N[C@@H]1[C@@H](O)[C@H](O[C@@H]2O[C@H](CO)[C@@H](O[C@@H]3O[C@H](CO[C@H]4O[C@H](CO)[C@@H](O)[C@H](O)[C@@H]4O[C@@H]4O[C@H](CO)[C@@H](O[C@@H]5O[C@H](CO[C@]6(C(=O)OCc7ccccc7)C[C@H](O)[C@@H](NC(C)=O)[C@H]([C@H](O)[C@H](O)CO)O6)[C@H](O)[C@H](O)[C@H]5O)[C@H](O)[C@H]4NC(C)=O)[C@@H](O)[C@H](O[C@H]4O[C@H](CO)[C@@H](O)[C@H](O)[C@@H]4O[C@@H]4O[C@H](CO)[C@@H](O[C@@H]5O[C@H](CO[C@]6(C(=O)OCc7ccccc7)C[C@H](O)[C@@H](NC(C)=O)[C@H]([C@H](O)[C@H](O)CO)O6)[C@H](O)[C@H](O)[C@H]5O)[C@H](O)[C@H]4NC(C)=O)[C@@H]3O)[C@H](O)[C@H]2NC(C)=O)[C@@H](CO)O[C@H]1NC(=O)C*; undeca‑saccharide = not defined here; Decanoyl = CCCCCCCCCC(=O)*

What was measured:
[1] = target: human GLP-1R (Homo sapiens, UniProt P43220); test: GLP-1 receptor luciferase reporter assay (part II, dimer analogs); settings: CV-1 cells transfected with human GLP-1R and CRE, Table 8
Procedure: Specifically, the fibroblast cell line CV-1 (1×10^4 cells/ml, Korea Cell Line Bank) was cultured on a 96-well white cell culture plate for 24 hours, and then human GLP-1R (pcDNA3.1_hGLP-1R) and cAMP response element (CRE, pcDNA3.1_hCRE) were added to perform transfection. After 24 hours, the medium was exchanged with a serum-free medium, followed by culture for 16 hours, and then each analog was treated for 6 hours. The expression level of luciferase, a reporter gene, by activated GLP-1R, was quantified by a luminometer, and the results are shown in Table 8.

[2] = system: rat islets; test: Glucose-dependent insulin secretion from rat islets, rat insulin ELISA (part II); format: cell-based; settings: 28 mM glucose, Table 9
Source text: The pancreas of 8-week-old SD rats (Damul Science) was extracted, and islets were isolated.

[3] = system: C57BKS/J dbdb mice; test: Anti-diabetic (blood glucose lowering) effect in Type 2 diabetes mouse models; settings: 20 nmole/kg s.c., 0-48 hours
[4] = Pharmacokinetics after subcutaneous administration, Exendin-4 EIA (part II); settings: mouse, in vivo, sc
[5] = target: T1, human GLP-1R (human, UniProt P43220 24-463); test: cell-based or functional assay
[6] = target: T1, human GLP-1R; test: cell-based or functional assay; remark: listed apart in the source

Chain of human GLP-1R (Homo sapiens, UniProt P43220) (P43220 24-463): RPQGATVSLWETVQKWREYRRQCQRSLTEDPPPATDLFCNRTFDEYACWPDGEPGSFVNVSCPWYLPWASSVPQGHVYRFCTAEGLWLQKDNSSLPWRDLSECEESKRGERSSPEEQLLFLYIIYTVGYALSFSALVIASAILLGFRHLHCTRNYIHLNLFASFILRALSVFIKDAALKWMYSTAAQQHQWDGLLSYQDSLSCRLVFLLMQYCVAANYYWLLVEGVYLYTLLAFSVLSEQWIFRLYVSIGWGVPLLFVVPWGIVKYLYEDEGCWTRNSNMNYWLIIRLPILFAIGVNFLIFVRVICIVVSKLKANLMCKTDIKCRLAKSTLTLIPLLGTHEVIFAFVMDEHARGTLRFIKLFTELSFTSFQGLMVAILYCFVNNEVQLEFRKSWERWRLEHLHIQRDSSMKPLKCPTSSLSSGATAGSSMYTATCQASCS

CCCCCCCCCC(=O)NCCCC[C@H](NC(=O)[C@H](CO)NC(=O)[C@@H]1CCCN1C(=O)CNC(=O)CNC(=O)[C@H](CC(N)=O)NC(=O)[C@H](CCCCN)NC(=O)[C@H](CC(C)C)NC(=O)[C@H](Cc1c[nH]c2ccccc12)NC(=O)[C@H](CSCC(=O)N[C@@H]1O[C@H](CO)[C@@H](O[C@@H]2O[C@H](CO)[C@@H](O[C@@H]3O[C@H](CO[C@H]4O[C@H](CO)[C@@H](O)[C@H](O)[C@@H]4O[C@@H]4O[C@H](CO)[C@@H](O[C@@H]5O[C@H](CO[C@]6(C(=O)OCc7ccccc7)C[C@H](O)[C@@H](NC(C)=O)[C@H]([C@H](O)[C@H](O)CO)O6)[C@H](O)[C@H](O)[C@H]5O)[C@H](O)[C@H]4NC(C)=O)[C@@H](O)[C@H](O[C@H]4O[C@H](CO)[C@@H](O)[C@H](O)[C@@H]4O[C@@H]4O[C@H](CO)[C@@H](O[C@@H]5O[C@H](CO[C@]6(C(=O)OCc7ccccc7)C[C@H](O)[C@@H](NC(C)=O)[C@H]([C@H](O)[C@H](O)CO)O6)[C@H](O)[C@H](O)[C@H]5O)[C@H](O)[C@H]4NC(C)=O)[C@@H]3O)[C@H](O)[C@H]2NC(C)=O)[C@H](O)[C@H]1NC(C)=O)NC(=O)[C@@H](NC(=O)[C@H](Cc1ccccc1)NC(=O)[C@H](CC(C)C)NC(=O)[C@H](CCCNC(=N)N)NC(=O)[C@@H](NC(=O)[C@H](C)NC(=O)[C@H](CSSC[C@H](NC(=O)[C@H](CCC(=O)O)NC(=O)[C@H](CCC(=O)O)NC(=O)[C@H](CCSC)NC(=O)[C@H](CCC(N)=O)NC(=O)[C@H](CCCCN)NC(=O)[C@H](CO)NC(=O)[C@H](CC(C)C)NC(=O)[C@H](CC(=O)O)NC(=O)[C@H](CO)NC(=O)[C@@H](NC(=O)[C@H](Cc1ccccc1)NC(=O)[C@@H](NC(=O)CNC(=O)[C@H](CCC(=O)O)NC(=O)CNC(=O)[C@@H](N)Cc1c[nH]cn1)[C@@H](C)O)[C@@H](C)O)C(=O)N[C@@H](C)C(=O)N[C@H](C(=O)N[C@@H](CCCNC(=N)N)C(=O)N[C@@H](CC(C)C)C(=O)N[C@@H](Cc1ccccc1)C(=O)N[C@H](C(=O)N[C@@H](CSCC(=O)N[C@@H]1O[C@H](CO)[C@@H](O[C@@H]2O[C@H](CO)[C@@H](O[C@@H]3O[C@H](CO[C@H]4O[C@H](CO)[C@@H](O)[C@H](O)[C@@H]4O[C@@H]4O[C@H](CO)[C@@H](O[C@@H]5O[C@H](CO[C@]6(C(=O)OCc7ccccc7)C[C@H](O)[C@@H](NC(C)=O)[C@H]([C@H](O)[C@H](O)CO)O6)[C@H](O)[C@H](O)[C@H]5O)[C@H](O)[C@H]4NC(C)=O)[C@@H](O)[C@H](O[C@H]4O[C@H](CO)[C@@H](O)[C@H](O)[C@@H]4O[C@@H]4O[C@H](CO)[C@@H](O[C@@H]5O[C@H](CO[C@]6(C(=O)OCc7ccccc7)C[C@H](O)[C@@H](NC(C)=O)[C@H]([C@H](O)[C@H](O)CO)O6)[C@H](O)[C@H](O)[C@H]5O)[C@H](O)[C@H]4NC(C)=O)[C@@H]3O)[C@H](O)[C@H]2NC(C)=O)[C@H](O)[C@H]1NC(C)=O)C(=O)N[C@@H](Cc1c[nH]c2ccccc12)C(=O)N[C@@H](CC(C)C)C(=O)N[C@@H](CCCCN)C(=O)N[C@@H](CC(N)=O)C(=O)NCC(=O)NCC(=O)N1CCC[C@H]1C(=O)N[C@@H](CO)C(=O)N[C@@H](CCCCNC(=O)CCCCCCCCC)C(=O)O)[C@@H](C)CC)C(C)C)NC(=O)[C@H](CCC(=O)O)NC(=O)[C@H](CCC(=O)O)NC(=O)[C@H](CCSC)NC(=O)[C@H](CCC(N)=O)NC(=O)[C@H](CCCCN)NC(=O)[C@H](CO)NC(=O)[C@H](CC(C)C)NC(=O)[C@H](CC(=O)O)NC(=O)[C@H](CO)NC(=O)[C@@H](NC(=O)[C@H](Cc1ccccc1)NC(=O)[C@@H](NC(=O)CNC(=O)[C@H](CCC(=O)O)NC(=O)CNC(=O)[C@@H](N)Cc1c[nH]cn1)[C@@H](C)O)[C@@H](C)O)C(C)C)[C@@H](C)CC)C(=O)O [AGM-212-1, AGM-212(E17C & E24C-11 sugar)-S-S-AGM-212(E17C & E24C-11 sugar)]
Emax (fold induction over basal) [1]: 10.1 ± 1.2 fold induction over basal
Insulin secretion from rat islets ([2]; 10 nM analog): 14506.04 ± 3493.9 pg/mL
Insulin secretion from rat islets ([2]; 100 nM analog): 20080 ± 8384.9 pg/mL
anti-diabetic effect (blood glucose lowering) [3]: reduced anti-diabetic effect

I: H-HGEGTFTSDLSKQMEECAVRLFIEWLKC(X1)GGPSK(Decanoyl)-OH / II: H-HGEGTFTSDLSKQMEECAVRLFIEWLKC(X1)GGPSK(Decanoyl)-OH (disulfide I:17-II:17) [AGM-212-2, AGM-212(E17C & N28C-11 sugar)-S-S-AGM-212(E17C & N28C-11 sugar)]
Emax (fold induction over basal) [1]: 10.2 ± 1.3 fold induction over basal
Insulin secretion from rat islets ([2]; 10 nM analog): 14446.79 ± 654.34 pg/mL
Insulin secretion from rat islets ([2]; 100 nM analog): 24954.72 ± 2741.89 pg/mL
Tmax [4]: 2 h
half-life [4]: 4.85 h
anti-diabetic effect (blood glucose lowering) [3]: increased degree of blood glucose lowering compared with Ex4 and AGM-212

HGEGTFTSDLSKQMEECAVRLFIEWLKC(undeca‑saccharide)GGPSK(Decanoyl) (reading uncertain; also: homodimer via Cys17–Cys17 disulfide) [AGM-212-2]
Emax (fold induction over basal), CRE-luciferase reporter [5]: 10.2 fold induction over basal
fold change of EC50 level compared with Ex4 (luciferase reporter) [6]: ≥ 6 fold
